Measured values from ChEMBL document CHEMBL1124812, “Vinblastine and vincristine are inhibitors of monoamine oxidase B” (J Med Chem, 1990).

Target: T1, Amine oxidase [flavin-containing] B (Bos taurus, UniProt P56560)
T1 sequence (P56560 whole entry): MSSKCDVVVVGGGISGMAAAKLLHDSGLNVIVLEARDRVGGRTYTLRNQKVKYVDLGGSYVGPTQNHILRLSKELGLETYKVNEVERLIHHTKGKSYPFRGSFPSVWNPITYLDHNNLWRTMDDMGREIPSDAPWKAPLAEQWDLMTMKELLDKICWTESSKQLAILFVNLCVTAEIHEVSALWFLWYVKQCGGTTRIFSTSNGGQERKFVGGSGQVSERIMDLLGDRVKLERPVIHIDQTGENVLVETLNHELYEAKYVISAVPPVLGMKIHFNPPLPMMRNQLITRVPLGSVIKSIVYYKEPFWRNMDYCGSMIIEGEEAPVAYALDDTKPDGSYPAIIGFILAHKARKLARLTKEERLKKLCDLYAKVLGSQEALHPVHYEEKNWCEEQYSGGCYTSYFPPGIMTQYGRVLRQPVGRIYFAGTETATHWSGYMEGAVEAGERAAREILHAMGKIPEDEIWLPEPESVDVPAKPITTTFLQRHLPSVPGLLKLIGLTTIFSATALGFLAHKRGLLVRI
Test: Inhibitory activity against Monoamine oxidase B isolated from beef liver mitochondria was determined

Work on `CC[C@]1(O)C[C@@H]2CN(CCc3c([nH]c4ccccc34)[C@@](C(=O)OC)(c3cc4c(cc3OC)N(C)[C@H]3[C@@](O)(C(=O)OC)[C@H](OC(C)=O)[C@]5(CC)C=CCN6CC[C@]43[C@@H]65)C2)C1` [VINBLASTINE] yielded a Ki of 77 µM.
